Test results published in patent US5596002A, “Method of treating chloroquine-resistant malaria with aminoquinoline derivatives” (Hoffmann-La Roche Inc., priority 1993, dated 1997).
In brackets after ≈: the same amount, converted by molar mass.

What was measured:
Type in all cases: cell-based
[1] = tested on: Plasmodium falciparum, chloroquine-sensitive strain NF54; test: activity against P. falciparum in vitro, strain NF54; settings: Plasmodium falciparum; chloroquine-sensitive strain NF54; 48 h-72 h; read-out: IC50 (50% growth inhibition)
Procedure: (§1) Test method for the determination of the activity against P. falciparum in vitro
(§2) The preparations of the present invention were tested on intraerythrocytary stages of P. falciparum from asynchronous cultures according to the method of Desjardin et al. (Desjardins, R. E. et al: Quantitative assessment of antimalarial activity in vitro by a semiautomated microdilution technique. Antimicrob. Agents Chemother. 16, 710-718, (1979)).
(§3) The culture medium consisted of RPMI 1640 with the addition of 25 mM HEPES, 25 mM NaHCO3, […] neomycin and 10% human serum (A^+). Human-A^+ erythrocytes were used as the P. falciparum host cells. The parasites were maintained at 37° C. in an atmosphere of 3% O2, 4% CO2, 93% N2 and at 95% relative humidity.
(§4) In order to determine the activity, the preparations were dissolved in DMSO, pre-diluted in the culture medium to a suitable starting concentration and subsequently titrated-out into microtitre plates in the 2nd stage over 6-7 steps. After the addition of the parasite culture (0.7% parasitemia in 2.5% erythrocyte suspension), the test plates were incubated under the conditions given above for 48 h-72 h. The parasite growth in the different preparation concentrations was determined using [G-^3 H]-hypoxanthin incorporation compared to untreated control cultures on the same test plates. The 50% growth inhibition (IC50) was calculated according to logit regression analysis from the resulting dosage-activity curve.
(§5) The preparations were tested on at least one chloroquine-resistant and one chloroquine-sensitive P. falciparum strain. Additional sensitive and resistant strains were also included for further characterization.
(§6) Table 1 below contains the IC50 values measured in vitro for the growth inhibition of chloroquine-sensitive and chloroquine-resistant strains of the human pathogenic Plasmodium falciparum.

[2] = tested on: Plasmodium falciparum, chloroquine-resistant strain 7G8; test: activity against P. falciparum in vitro, strain 7G8; settings: chloroquine-resistant strain 7G8, 48 h-72 h, read-out: IC50 (50% growth inhibition)
Procedure: as §1, §2, §3, §4, §5, §6

[3] = tested on: Plasmodium falciparum, chloroquine-sensitive strain RFMEF3; test: activity against P. falciparum in vitro, strain RFMEF3; settings: chloroquine-sensitive strain RFMEF3, 48 h-72 h, read-out: IC50 (50% growth inhibition)
Procedure: as §1, §2, §3, §4, §5, §6

[4] = tested on: Plasmodium falciparum, chloroquine-resistant strain W2; test: activity against P. falciparum in vitro, strain W2; settings: chloroquine-resistant strain W2, 48 h-72 h, read-out: IC50 (50% growth inhibition)
Procedure: as §1, §2, §3, §4, §5, §6

[5] = tested on: Plasmodium falciparum, chloroquine-resistant strain ItG2 F6; test: activity against P. falciparum in vitro, strain ItG2 F6; settings: chloroquine-resistant strain ItG2 F6, 48 h-72 h, read-out: IC50 (50% growth inhibition)
Procedure: as §1, §2, §3, §4, §5, §6

[6] = tested on: Plasmodium falciparum, chloroquine-sensitive strain FCH5C2; test: activity against P. falciparum in vitro, strain FCH5C2; settings: chloroquine-sensitive strain FCH5C2, 48 h-72 h, read-out: IC50 (50% growth inhibition)
Procedure: as §1, §2, §3, §4, §5, §6

[7] = tested on: Plasmodium falciparum, chloroquine-resistant strain W2 Mef; test: activity against P. falciparum in vitro, strain W2 Mef; settings: 48 h-72 h, read-out: IC50 (50% growth inhibition)
Procedure: as §1, §2, §3, §4, §5, §6

[8] = tested on: Plasmodium falciparum, chloroquine-resistant strain K1; test: activity against P. falciparum in vitro, strain K1; settings: Plasmodium falciparum; chloroquine-resistant strain K1; 48 h-72 h; read-out: IC50 (50% growth inhibition)
Procedure: as §1, §2, §3, §4, §5, §6

[9] = tested on: Plasmodium falciparum, chloroquine-resistant strain RFCR3; test: activity against P. falciparum in vitro, strain RFCR3; settings: chloroquine-resistant strain RFCR3, 48 h-72 h, read-out: IC50 (50% growth inhibition)
Procedure: as §1, §2, §3, §4, §5, §6

[10] = tested on: Plasmodium falciparum, chloroquine-resistant strain Indo; test: activity against P. falciparum in vitro, strain Indo; settings: chloroquine-resistant strain Indo, 48 h-72 h, read-out: IC50 (50% growth inhibition)
Procedure: as §1, §2, §3, §4, §5, §6

[11] = tested on: Plasmodium falciparum, chloroquine-sensitive strain HB3; test: activity against P. falciparum in vitro, strain HB3; settings: chloroquine-sensitive strain HB3, 48 h-72 h, read-out: IC50 (50% growth inhibition)
Procedure: as §1, §2, §3, §4, §5, §6

[12] = tested on: Plasmodium falciparum, chloroquine-sensitive strain Ro7 3; test: activity against P. falciparum in vitro, strain Ro7 3; settings: chloroquine-sensitive strain Ro7 3, 48 h-72 h, read-out: IC50 (50% growth inhibition)
Procedure: as §1, §2, §3, §4, §5, §6

Compound | IC50 [1] [ng/mL] | IC50 [2] [ng/mL] | IC50 [3] [ng/mL] | IC50 [4] [ng/mL] | IC50 [5] [ng/mL] | IC50 [6] [ng/mL] | IC50 [7] [ng/mL] | IC50 [8] [ng/mL] | IC50 [9] [ng/mL] | IC50 [10] [ng/mL] | IC50 [11] [ng/mL] | IC50 [12] [ng/mL]
CC(CN1CCCC1)Nc1ccnc2cc(Cl)ccc12 (racemic) [Example 3, (RS)-(7-Chloro-quinolin-4-yl)-(1-methyl-2-pyrrolidin-1-yl-ethyl)-amine] | 7 (≈ 0.0242 µM) | 7 (≈ 0.0242 µM) | 7 (≈ 0.0242 µM) | 7 (≈ 0.0242 µM) | 5 (≈ 0.0173 µM) | 7 (≈ 0.0242 µM) | 11 (≈ 0.038 µM) | 12 (≈ 0.0414 µM) | 8 (≈ 0.0276 µM) | 6 (≈ 0.0207 µM) | 5 (≈ 0.0173 µM) | 4 (≈ 0.0138 µM)
CC(CN1CCCCC1)Nc1ccnc2cc(Cl)ccc12 (racemic) [Example 4, (RS)-(7-Chloro-quinolin-4-yl)-(1-methyl-2-piperidin-1-yl-ethyl)-amine] | 7 (≈ 0.023 µM) | 7 (≈ 0.023 µM) | 7 (≈ 0.023 µM) | 15 (≈ 0.0494 µM) | 5 (≈ 0.0165 µM) | 8 (≈ 0.0263 µM) | 14 (≈ 0.0461 µM) | 15 (≈ 0.0494 µM) | 9 (≈ 0.0296 µM) | 8 (≈ 0.0263 µM) | 8 (≈ 0.0263 µM) | 4 (≈ 0.0132 µM)
CC1CCCN(CCNc2ccnc3cc(Cl)ccc23)C1 (racemic) [Example 23, (RS)-(7-Chloro-quinolin-4-yl)-[2-(3-methyl-piperidin-1-yl)-ethyl]-amine] | 6 (≈ 0.0197 µM) | 8 (≈ 0.0263 µM) | 7 (≈ 0.023 µM) | 15 (≈ 0.0494 µM) | 6 (≈ 0.0197 µM) | 6 (≈ 0.0197 µM) | 13 (≈ 0.0428 µM) | 15 (≈ 0.0494 µM) | 10 (≈ 0.0329 µM) | 8 (≈ 0.0263 µM) | 7 (≈ 0.023 µM) | 4 (≈ 0.0132 µM)
CC1CCCCN1CCNc1ccnc2cc(Cl)ccc12 (racemic) [Example 26, (RS)-(7-Chloro-quinolin-4-yl)-[2-(2-methyl-piperidin-1-yl) -ethyl]-amine] | 7 (≈ 0.023 µM) | 8 (≈ 0.0263 µM) | 9 (≈ 0.0296 µM) | 15 (≈ 0.0494 µM) | 6 (≈ 0.0197 µM) | 8 (≈ 0.0263 µM) | 13 (≈ 0.0428 µM) | 15 (≈ 0.0494 µM) | 8 (≈ 0.0263 µM) | 9 (≈ 0.0296 µM) | 8 (≈ 0.0263 µM) | 5 (≈ 0.0165 µM)
CCC1CCCCN1CCNc1ccnc2cc(Cl)ccc12 (racemic) [Example 27, (RS)-(7-Chloro-quinolin-4-yl)-[2-(2-ethyl-piperidin-1-yl)-ethyl]amine] | 8 (≈ 0.0252 µM) | 7 (≈ 0.022 µM) | 7 (≈ 0.022 µM) | 19 (≈ 0.0598 µM) | 7 (≈ 0.022 µM) | 10 (≈ 0.0315 µM) | 14 (≈ 0.044 µM) | 18 (≈ 0.0566 µM) | 15 (≈ 0.0472 µM) | 9 (≈ 0.0283 µM) | 9 (≈ 0.0283 µM) | 3 (≈ 0.00944 µM)
Clc1ccc2c(NCCN3CCCCC3)ccnc2c1 [Example 8, (7-Chloro-quinolin-4-yl)-(2-piperidin-1-yl-ethyl)-amine] | 5 (≈ 0.0173 µM) | 7 (≈ 0.0242 µM) | 9 (≈ 0.0311 µM) | 11 (≈ 0.038 µM) | 4 (≈ 0.0138 µM) | 9 (≈ 0.0311 µM) | 9 (≈ 0.0311 µM) | 11 (≈ 0.038 µM) | 10 (≈ 0.0345 µM) | 5 (≈ 0.0173 µM) | 7 (≈ 0.0242 µM) | 4 (≈ 0.0138 µM)
CCN1CCCC1CNc1ccnc2cc(Cl)ccc12 (stereo not drawn) [Example 12, (7-Chloro-quinolin-4-yl)-(1-ethyl-pyrrolidin-2-yl-methyl)-amine] | 6 (≈ 0.0207 µM) | 15 (≈ 0.0518 µM) | 8 (≈ 0.0276 µM) | 15 (≈ 0.0518 µM) | 8 (≈ 0.0276 µM) | 9 (≈ 0.0311 µM) | 9 (≈ 0.0311 µM) | 10 (≈ 0.0345 µM) | 15 (≈ 0.0518 µM) | 12 (≈ 0.0414 µM) | 7 (≈ 0.0242 µM) | 7 (≈ 0.0242 µM)
